Structures can show the parent of a compound that is named as a salt.
Legend:
[1] = test system: sodium channel; assay: Guanidine influx assay (14C-guanidine radiotracer flux, in vitro); type: cell-based, human or rat; settings: guanidine influx assay using a known cell line that expresses a sodium channel
Procedure, shortened: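 Aconitine holds channels open while 14C-guanidine enters human or rat sodium-channel-expressing cells in choline-substituted low-sodium saline, with test agent present at ambient temperature. Retained tracer is scintillation-counted and IC50 fitted by a four-parameter logistic model.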

[2] = biological target: CYP3A4 (Homo sapiens, UniProt P08684); assay: Cytochrome P450 (CYP450) Inhibition Assay, CYP3A4 (Vivid fluorescence, BOMCC substrate); settings: human, P450 Baculosomes (recombinant CYP3A4), probe BOMCC (Vivid substrate)
Sequence of CYP3A4 (P08684 whole entry): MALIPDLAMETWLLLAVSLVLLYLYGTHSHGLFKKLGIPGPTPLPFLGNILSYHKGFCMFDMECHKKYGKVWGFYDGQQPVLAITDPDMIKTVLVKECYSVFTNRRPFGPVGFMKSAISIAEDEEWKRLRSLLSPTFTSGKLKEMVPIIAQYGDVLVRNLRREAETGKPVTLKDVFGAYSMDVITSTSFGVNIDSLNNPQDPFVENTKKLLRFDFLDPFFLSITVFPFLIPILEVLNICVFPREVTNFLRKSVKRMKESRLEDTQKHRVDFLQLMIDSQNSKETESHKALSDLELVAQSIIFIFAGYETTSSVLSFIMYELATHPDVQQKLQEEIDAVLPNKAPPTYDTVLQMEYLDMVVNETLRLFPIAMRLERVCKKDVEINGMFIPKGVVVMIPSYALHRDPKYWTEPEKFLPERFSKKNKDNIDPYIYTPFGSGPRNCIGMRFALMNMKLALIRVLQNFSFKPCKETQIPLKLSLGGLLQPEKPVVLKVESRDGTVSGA

With CN1C(=O)C2(COc3cc4c(cc32)OCCO4)c2c(C(=O)NC3CC3)cccc21 (stereo not drawn) [Example 16.40, N-cyclopropyl-1′-methyl-2′-oxo-1′,2,2′,3-tetrahydrospiro[furo[2,3-g][1,4]benzodioxine-8,3′-indole]-4′-carboxamide] the melting point was 127 to 128 °C.

Work on O=C(O)CN1C(=O)C2(COc3cc4c(cc32)OCCO4)c2ccccc21 (stereo not drawn) [Example 11.76, (2′-oxo-2,3-dihydrospiro[furo[2,3-g][1,4]benzodioxine-8,3′-indol]-1′(2′H)-yl)acetic acid] yielded a melting point of 193 to 196 °C.

CN1CCC(CN2C(=O)C3(COc4cc(F)c(F)cc43)c3ccccc32)CC1 (stereo not drawn) (as salt: hydrochloride) [Example 11.112, 5,6-difluoro-1′-[(1-methylpiperidin-4-yl)methyl]spiro[1-benzofuran-3,3′-indol]-2′(1′H)-one hydrochloride] gave a melting point of 162 to 164 °C.

O=C1N(C(c2ccccc2)c2ccccc2)c2c(F)cccc2C12COc1cc3c(cc12)CCO3 (stereo not drawn) [Example 2.20, 1′-(diphenylmethyl)-7′-fluoro-5,6-dihydrospiro[benzo[1,2-b:5,4-b′]difuran-3,3′-indol]-2′(1′H)-one] showed a melting point of 183 to 184 °C.

Compound O=C1N(C(c2ccccc2)c2ccccc2)c2cc(F)ccc2C12COc1cc3c(cc12)CCO3 (stereo not drawn) [Example 2.5, 1′-(diphenylmethyl)-6′-fluoro-5,6-dihydrospiro[benzo[1,2-b:5,4-b′]difuran-3,3′-indol]-2′(1′H)-one] has a melting point of 194 to 196 °C.

Work on O=C1N(Cc2ccc(Br)cc2)c2ccccc2C12COc1cc3c(cc12)OCO3 (stereo not drawn) [Example 4.1, 1′-(4-bromobenzyl)spiro[furo[2,3-f][1,3]benzodioxole-7,3′-indol]-2′(1′H)-one] yielded a melting point of 148 to 150 °C.

With COc1cc2c(cc1C)[C@]1(CO2)C(=O)N(CN2CCN(C)CC2)c2ccccc21 (as salt: chloride) [Example 11.65, (3R)-6-methoxy-5-methyl-1′-[(4-methylpiperazin-1-yl)methyl]spiro[1-benzofuran-3,3′-indol]-2′(1′H)-one hydrogen chloride] the melting point was > 200 °C (dec.).

In the case of O=C1N(Cc2ccc(N[C@@H]3CCNC3)cc2)c2ccccc2C12COc1cc(F)c(F)cc12 (stereo partly drawn) (as salt: hydrochloride) [Example 33.2, 5,6-difluoro-1′-{4-[(3R)-pyrrolidin-3-ylamino]benzyl}spiro[1-benzofuran-3,3′-indol]-2′(1′H)-one hydrochloride], the melting point is reported as 153 to 162 °C.

For N#CCN1C(=O)C2(COc3cc4c(cc32)OCCO4)c2ccccc21 (stereo not drawn) [Example 5.24, (2′-oxo-2,3-dihydrospiro[furo[2,3-g][1,4]benzodioxine-8,3′-indol]-1′(2′H)-yl)acetonitrile], the melting point was 161 to 162 °C.

Cc1noc2cc3c(cc12)C1(CO3)C(=O)N(Cc2ccc(-c3cc(N)n[nH]3)cc2)c2ccccc21 (stereo not drawn) (as salt: hydrochloride) [Example 29.1, 1′-[4-(3-amino-1H-pyrazol-5-yl)benzyl]-3-methylspiro[furo[3,2-f][1,2]benzisoxazole-5,3′-indol]-2′(1′H)-one hydrochloride] showed a melting point of 191 to 195 °C.

For CC(C)N1CCC(CN2C(=O)C3(COc4cc5c(cc43)CCO5)c3ccccc32)CC1.Cl (stereo not drawn), the melting point was 167 °C (dec.).

Nc1cc(-c2ccc(CN3C(=O)C4(COc5cc6c(cc54)OCCO6)c4ccccc43)cc2)[nH]n1 (stereo not drawn) (as salt: hydrochloride) [Example 29.2, 1′-[4-(3-amino-1H-pyrazol-5-yl)benzyl]-2,3-dihydrospiro[furo[2,3-g][1,4]benzodioxine-8,3′-indol]-2′(1′H)-one hydrochloride] gave a melting point of 198 to 201 °C.

O=C1Nc2ccccc2C12COc1ccc3c(c12)OCCO3 (stereo not drawn) [Example 3.43, 2,3-dihydrospiro[furo[3,2-f][1,4]benzodioxine-9,3′-indol]-2′(1′H)-one] gave a melting point of 259 to 261 °C.

For Cc1noc2cc3c(cc12)C1(CO3)C(=O)N(Cc2nc(C(=O)N(C)C)co2)c2ccccc21 (stereo not drawn) [Example 13.9, N,N-dimethyl-2-[(3-methyl-2′-oxospiro[furo[3,2-f][1,2]benzisoxazole-5,3′-indol]-1′(2′H)-yl)methyl]-1,3-oxazole-4-carboxamide], the melting point was 87 to 89 °C.

CC(C)NC(=O)N1CCC(CN2C(=O)C3(COc4cc5c(cc43)CCO5)c3ccccc32)C1 (stereo not drawn) [Example 11.62, N-(1-methylethyl)-3-[(2′-oxo-5,6-dihydrospiro[benzo[1,2-b:5,4-b′]difuran-3,3′-indol]-1′(2′H)-yl)methyl]pyrrolidine-1-carboxamide] showed a melting point of 107 to 115 °C.

C[n+]1c(Cl)c[nH]c1CN1C(=O)C2(COc3cc4c(cc32)OCCO4)c2ccccc21 (stereo not drawn) [Example 4.39, 1′-[(5-chloro-1-methyl-1H-imidazol-2-yl)methyl]-2,3-dihydrospiro[furo[2,3-g][1,4]benzodioxine-8,3′-indol]-2′(1′H)-one] gave a melting point of 91 to 95 °C.

For COc1cc2c(cc1C)[C@@]1(CO2)C(=O)N(CN2CCN(C)CC2)c2ccccc21 (as salt: chloride) [Example 11.64, (3S)-6-methoxy-5-methyl-1′-[(4-methylpiperazin-1-yl)methyl]spiro[1-benzofuran-3,3′-indol]-2′(1′H)-one hydrogen chloride], the melting point was > 200 °C (dec.).

In the case of CCN1CCC(CN2C(=O)C3(COc4cc5c(cc43)CCO5)c3ccccc32)CC1.Cl (stereo not drawn), the melting point is reported as 135 °C (dec.).

With COc1ccc(CN2C(=O)C3(COc4cc5c(cc43)OCO5)c3ccccc32)cc1 (stereo not drawn) [Example 7, 1′-(4-methoxybenzyl)spiro[furo[2,3-f][1,3]benzodioxole-7,3′-indol]-2′(1′H)-one] the melting point was 147 to 148 °C.

For O=C1N(C[C@@H]2CCCN2)c2ccccc2C12COc1cc3c(cc12)CCO3 (stereo partly drawn) [Example 11.11, 1′-[(2S)-pyrrolidin-2-ylmethyl]-5,6-dihydrospiro[benzo[1,2-b:5,4-b′]difuran-3,3′-indol]-2′(1′H)-one], the melting point was 83 to 86 °C.

With CN1CCN(CN2C(=O)C3(COc4cc5c(cc43)CCO5)c3ccccc32)CC1 (stereo not drawn) (as salt: hydrochloride) the melting point was 181 °C (dec.).

O=C1N(C(c2ccccc2)c2ccccc2)c2ccccc2C12COc1cc3c(cc12)CCCO3 (stereo not drawn) [Example 2.12, 1′-(diphenylmethyl)-6,7-dihydro-5H-spiro[furo[3,2-g]chromene-3,3′-indol]-2′(1′H)-one] showed a melting point of 208 to 211 °C.

In the case of CN1C(=O)C2(COc3cc4c(cc32)OCCO4)c2c(C(N)=O)cccc21 (stereo not drawn) [Example 16.72, 1′-methyl-2′-oxo-1′,2,2′,3-tetrahydrospiro[furo[2,3-g][1,4]benzodioxine-8,3′-indole]-4′-carboxamide], the melting point is reported as > 250 °C.

O=C1N(C(c2ccccc2)c2ccccc2)c2ccc(F)cc2C12COc1cc3c(cc12)CCO3 (stereo not drawn) [Example 2.4, 1′-(diphenylmethyl)-5′-fluoro-5,6-dihydrospiro[benzo[1,2-b:5,4-b′]difuran-3,3′-indol]-2′(1′H)-one] gave a melting point of 228 to 229 °C.

With CN1CCN(CN2C(=O)C3(COc4cc5c(cc43)OCO5)c3ccccc32)CC1 (stereo not drawn) (as salt: chloride) [Example 11.63, 1′-[(4-methylpiperazin-1-yl)methyl]spiro[furo[2,3-f][1,3]benzodioxole-7,3′-indol]-2′(1′H)-one hydrogen chloride] the melting point was > 175 °C (dec.).

CNC(=O)c1cccc2c1C1(COc3cc4c(cc31)OCCO4)C(=O)N2C (stereo not drawn) [Example 16.76, N,1′-dimethyl-2′-oxo-1′,2,2′,3-tetrahydrospiro[furo[2,3-g][1,4]benzodioxine-8,3′-indole]-4′-carboxamide] gave a melting point of 120 to 122 °C.

With O=C1Nc2ccccc2C12COc1cc(Br)ccc12 (stereo not drawn) [Example 3.2, 6-bromospiro[1-benzofuran-3,3′-indol]-2′(1′H)-one] the IC50 ([1]; activity level class) was 1000 to 10000 nM and the inhibition at 10 µM [2] was > 50%.

With COc1cncc(N2C(=O)C3(COc4cc5c(cc43)OCO5)c3ccccc32)c1 (stereo not drawn) [Example 1.17, 1′-(5-methoxypyridin-3-yl)spiro[furo[2,3-f][1,3]benzodioxole-7,3′-indol]-2′(1′H)-one] the IC50 ([1]; activity level class) was 100 to 1000 nM and the inhibition at 10 µM [2] was > 50%.

For COCCOCCN1C(=O)[C@@]2(COc3cc4c(cc32)OCCO4)c2ccccc21 [Example 9.70, (8S)-1′-[2-(2-methoxyethoxy)ethyl]-2,3-dihydrospiro[furo[2,3-g][1,4]benzodioxine-8,3′-indol]-2′(1′H)-one], the IC50 [1] was 1 to 100 nM and the inhibition at 10 µM [2] was < 50%.

For O=C1N(Cc2ccc(Br)o2)c2ccccc2C12COc1cc3c(cc12)CCO3 (stereo not drawn) [Example 4.18, 1′-[(5-bromofuran-2-yl)methyl]-5,6-dihydrospiro[benzo[1,2-b:5,4-b′]difuran-3,3′-indol]-2′(1′H)-one], the IC50 ([1]; activity level class) was 1 to 100 nM and the inhibition at 10 µM [2] was > 50%.

With O=C1N(Cc2cnc(Cl)s2)c2ccccc2C12COc1cc3c(cc12)OCO3 (stereo not drawn) [Example 11, 1′-[(2-chloro-1,3-thiazol-5-yl)methyl]spiro[furo[2,3-f][1,3]benzodioxole-7,3′-indol]-2′(1′H)-one] the IC50 [1] was 1 to 100 nM and the inhibition at 10 µM [2] was > 50%.

With O=C1N(Cc2cccc([N+](=O)[O-])c2)c2ccccc2C12COc1cc3c(cc12)OCCO3 (stereo not drawn) [Example 7.10] the IC50 ([1]; activity level class) was 1 to 100 nM and the inhibition at 10 µM [2] was < 50%.

In the case of COCCOCCN1C(=O)C2(COc3cc4onc(C)c4cc32)c2ccccc21 (stereo not drawn) [Example 9.54, 1′-[2-(2-methoxyethoxy)ethyl]-3-methylspiro[furo[3,2-f][1,2]benzisoxazole-5,3′-indol]-2′(1′H)-one], the IC50 [1] is reported as 100 to 1000 nM and the inhibition at 10 µM [2] is reported as < 50%.

In the case of Cn1nnc2cc(CN3C(=O)C4(COc5cc6c(cc54)OCCO6)c4ccccc43)ccc21 (stereo not drawn) [Example 7.23, 1′-[(1-methyl-1H-benzotriazol-5-yl)methyl]-2,3-dihydrospiro[furo[2,3-g][1,4]-benzodioxine-8,3′-indol]-2′(1′H)-one], the IC50 ([1]; activity level class) is reported as 1 to 100 nM and the inhibition at 10 µM [2] is reported as < 50%.

Source: US8263606B2 (Xenon Pharmaceuticals Inc., priority 2008, dated 2012)
